Experimental data from publication PMC2877376 (Journal of biomolecular screening, 2009).

System: E. coli K-12 sulA-gfp (strain SS996)
Experiment: RecA-dependent SOS activation, sulA-gfp reporter
Assay type: cell-based, Escherichia coli
Conditions: ciprofloxacin only, 90 min, 37 °C; untreated bacteria 0.76

O=C(O)c1cn(C2CC2)c2cc(N3CCNCC3)c(F)cc2c1=O [ciprofloxacin]
relative GFP expression (GFP/DAPI intensity ratio): 0.87
